# Source: ChEMBL document CHEMBL1139192, “Novel bis(indolyl)maleimide pyridinophanes that are potent, selective inhibitors of glycogen synthase kinase-3” (Bioorg Med Chem Lett, 2007)
# Experiments:
# [1] = biological target: Platelet-derived growth factor receptor alpha (Homo sapiens) (UniProt P16234); test: Inhibition of human PDGFRalpha at 1 uM relative to control; values are per cent of control
# Homo sapiens = organism: Homo sapiens; test: Inhibition of human CDK2/Cyclin E at 1 uM relative to control; values are per cent of control
# [2] = biological target: T1, Dual specificity mitogen-activated protein kinase kinase 7 (Homo sapiens) (UniProt O14733); test: Inhibition of human MKK7-beta at 1 uM relative to control; values are per cent of control
# T1 sequence (whole entry): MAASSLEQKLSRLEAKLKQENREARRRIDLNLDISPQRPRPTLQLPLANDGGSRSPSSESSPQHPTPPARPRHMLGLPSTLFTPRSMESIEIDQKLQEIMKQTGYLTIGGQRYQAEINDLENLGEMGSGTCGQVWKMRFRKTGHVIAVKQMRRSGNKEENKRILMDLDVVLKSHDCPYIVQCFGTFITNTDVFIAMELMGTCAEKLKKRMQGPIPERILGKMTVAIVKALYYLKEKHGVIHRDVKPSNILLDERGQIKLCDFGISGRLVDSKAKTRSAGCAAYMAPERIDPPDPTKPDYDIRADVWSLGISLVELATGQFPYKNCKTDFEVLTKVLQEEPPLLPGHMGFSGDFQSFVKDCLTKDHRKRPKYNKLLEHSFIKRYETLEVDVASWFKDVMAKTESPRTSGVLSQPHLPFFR
# [3] = biological target: T2, Serine/threonine-protein kinase D2 (Homo sapiens) (UniProt Q9BZL6); test: Inhibition of human PKD2 at 1 uM relative to control; values are per cent of control
# T2 sequence (whole entry): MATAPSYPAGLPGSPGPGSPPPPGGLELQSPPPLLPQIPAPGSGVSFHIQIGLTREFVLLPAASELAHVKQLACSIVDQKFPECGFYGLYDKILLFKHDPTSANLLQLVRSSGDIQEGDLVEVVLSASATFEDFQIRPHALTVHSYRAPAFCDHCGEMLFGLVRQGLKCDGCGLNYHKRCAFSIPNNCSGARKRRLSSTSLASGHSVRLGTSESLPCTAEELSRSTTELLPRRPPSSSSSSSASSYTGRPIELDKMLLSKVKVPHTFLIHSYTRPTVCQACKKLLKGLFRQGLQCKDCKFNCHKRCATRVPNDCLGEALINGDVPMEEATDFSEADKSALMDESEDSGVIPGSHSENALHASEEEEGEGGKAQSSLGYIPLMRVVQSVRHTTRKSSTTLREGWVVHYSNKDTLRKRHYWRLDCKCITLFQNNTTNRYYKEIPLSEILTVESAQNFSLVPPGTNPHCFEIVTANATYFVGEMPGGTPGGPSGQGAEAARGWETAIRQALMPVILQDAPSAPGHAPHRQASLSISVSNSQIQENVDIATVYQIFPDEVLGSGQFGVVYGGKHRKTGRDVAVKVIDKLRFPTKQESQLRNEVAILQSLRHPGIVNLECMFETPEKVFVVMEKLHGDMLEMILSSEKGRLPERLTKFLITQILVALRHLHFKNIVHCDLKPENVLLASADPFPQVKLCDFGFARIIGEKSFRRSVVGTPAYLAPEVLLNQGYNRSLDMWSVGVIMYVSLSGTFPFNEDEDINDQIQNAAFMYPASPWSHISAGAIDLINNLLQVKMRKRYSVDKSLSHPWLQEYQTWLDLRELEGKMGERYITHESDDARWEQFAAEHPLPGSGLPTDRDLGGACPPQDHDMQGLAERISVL
# [4] = biological target: Glycogen synthase kinase-3 beta (Homo sapiens, UniProt P49841); test: Inhibition of human recombinant GSK3-beta
# Glycogen synthase kinase-3 beta, sequence (P49841 whole entry): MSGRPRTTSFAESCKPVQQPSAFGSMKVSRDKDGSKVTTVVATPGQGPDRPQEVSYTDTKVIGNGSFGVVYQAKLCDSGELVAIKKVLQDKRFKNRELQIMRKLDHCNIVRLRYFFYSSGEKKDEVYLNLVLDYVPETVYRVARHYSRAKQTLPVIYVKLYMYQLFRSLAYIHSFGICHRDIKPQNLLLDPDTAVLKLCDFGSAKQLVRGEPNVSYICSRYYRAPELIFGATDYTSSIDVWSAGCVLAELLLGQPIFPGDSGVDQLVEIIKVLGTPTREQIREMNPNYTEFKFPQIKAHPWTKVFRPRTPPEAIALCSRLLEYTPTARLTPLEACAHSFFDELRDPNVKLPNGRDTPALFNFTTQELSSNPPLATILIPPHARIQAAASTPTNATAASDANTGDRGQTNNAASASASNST
# [5] = biological target: RAF proto-oncogene serine/threonine-protein kinase (Homo sapiens) (UniProt P04049); test: Residual activity of humna c-RAF at 1 uM relative to control
# RAF proto-oncogene serine/threonine-protein kinase (Homo sapiens), sequence (P04049 whole entry): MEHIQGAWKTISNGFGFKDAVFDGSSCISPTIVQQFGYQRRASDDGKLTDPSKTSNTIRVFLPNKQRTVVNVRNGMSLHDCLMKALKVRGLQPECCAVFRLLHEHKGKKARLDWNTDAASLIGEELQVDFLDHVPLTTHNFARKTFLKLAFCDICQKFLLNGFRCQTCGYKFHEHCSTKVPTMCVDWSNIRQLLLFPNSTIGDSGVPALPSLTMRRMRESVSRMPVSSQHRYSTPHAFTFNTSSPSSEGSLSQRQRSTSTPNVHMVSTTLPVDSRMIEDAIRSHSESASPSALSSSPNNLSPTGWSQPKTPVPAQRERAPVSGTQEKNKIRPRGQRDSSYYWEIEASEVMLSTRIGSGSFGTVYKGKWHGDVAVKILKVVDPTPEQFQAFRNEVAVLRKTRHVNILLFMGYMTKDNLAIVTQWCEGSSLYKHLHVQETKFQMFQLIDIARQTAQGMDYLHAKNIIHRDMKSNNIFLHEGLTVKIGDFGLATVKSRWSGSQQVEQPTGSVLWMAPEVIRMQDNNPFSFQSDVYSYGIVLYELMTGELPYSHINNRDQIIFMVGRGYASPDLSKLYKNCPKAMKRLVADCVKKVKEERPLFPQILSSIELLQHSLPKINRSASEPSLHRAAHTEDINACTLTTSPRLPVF
# [6] = biological target: Mitogen-activated protein kinase 1 (Homo sapiens) (UniProt P28482); test: Inhibition of MAPK1 at 1 uM relative to control; values are per cent of control
# Mitogen-activated protein kinase 1 (Homo sapiens), sequence (P28482 whole entry): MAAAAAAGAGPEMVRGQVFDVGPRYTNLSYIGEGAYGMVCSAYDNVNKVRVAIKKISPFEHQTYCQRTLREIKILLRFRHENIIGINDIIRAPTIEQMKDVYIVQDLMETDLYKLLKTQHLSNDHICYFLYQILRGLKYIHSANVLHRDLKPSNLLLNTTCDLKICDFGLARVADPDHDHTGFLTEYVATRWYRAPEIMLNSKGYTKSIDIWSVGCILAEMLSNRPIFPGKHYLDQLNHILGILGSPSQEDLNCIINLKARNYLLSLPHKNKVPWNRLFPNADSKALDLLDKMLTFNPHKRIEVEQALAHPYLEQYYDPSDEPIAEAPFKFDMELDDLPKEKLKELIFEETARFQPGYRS
# [7] = biological target: T3, Ephrin type-B receptor 2 (Homo sapiens) (UniProt P29323); test: Inhibition of human EphB2 at 1 uM relative to control; values are per cent of control
# T3 sequence (whole entry): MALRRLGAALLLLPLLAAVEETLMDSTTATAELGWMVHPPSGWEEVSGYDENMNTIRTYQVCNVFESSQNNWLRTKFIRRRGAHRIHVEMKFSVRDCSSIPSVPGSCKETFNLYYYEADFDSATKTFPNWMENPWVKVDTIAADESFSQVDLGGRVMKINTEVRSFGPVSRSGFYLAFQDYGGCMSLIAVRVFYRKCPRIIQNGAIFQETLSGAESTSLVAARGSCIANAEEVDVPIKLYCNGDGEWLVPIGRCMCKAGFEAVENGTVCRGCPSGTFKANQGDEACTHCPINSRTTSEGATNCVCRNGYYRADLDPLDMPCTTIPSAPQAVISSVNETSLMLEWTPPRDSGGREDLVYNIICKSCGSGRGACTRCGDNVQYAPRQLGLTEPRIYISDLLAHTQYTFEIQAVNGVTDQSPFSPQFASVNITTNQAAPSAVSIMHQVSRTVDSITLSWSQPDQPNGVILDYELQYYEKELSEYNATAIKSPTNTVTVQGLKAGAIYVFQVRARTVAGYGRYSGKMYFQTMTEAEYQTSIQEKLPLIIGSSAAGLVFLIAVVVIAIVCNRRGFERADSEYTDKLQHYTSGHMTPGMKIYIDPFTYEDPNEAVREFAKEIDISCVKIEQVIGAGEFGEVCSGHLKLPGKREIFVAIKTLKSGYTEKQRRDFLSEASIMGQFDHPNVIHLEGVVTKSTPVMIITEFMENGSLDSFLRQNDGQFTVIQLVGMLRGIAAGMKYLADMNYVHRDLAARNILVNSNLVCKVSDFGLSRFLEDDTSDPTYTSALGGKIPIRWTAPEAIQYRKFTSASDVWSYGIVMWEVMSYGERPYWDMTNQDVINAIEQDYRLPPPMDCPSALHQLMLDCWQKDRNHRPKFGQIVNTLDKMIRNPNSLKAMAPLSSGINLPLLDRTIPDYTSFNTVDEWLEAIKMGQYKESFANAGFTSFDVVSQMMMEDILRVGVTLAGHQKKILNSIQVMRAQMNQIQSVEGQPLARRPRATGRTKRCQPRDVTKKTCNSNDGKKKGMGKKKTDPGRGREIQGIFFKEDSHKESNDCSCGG
# [8] = biological target: Insulin receptor (Homo sapiens) (UniProt P06213); test: Residual activity of human IR at 1 uM relative to control
# Insulin receptor (Homo sapiens), sequence (P06213 whole entry, looked up): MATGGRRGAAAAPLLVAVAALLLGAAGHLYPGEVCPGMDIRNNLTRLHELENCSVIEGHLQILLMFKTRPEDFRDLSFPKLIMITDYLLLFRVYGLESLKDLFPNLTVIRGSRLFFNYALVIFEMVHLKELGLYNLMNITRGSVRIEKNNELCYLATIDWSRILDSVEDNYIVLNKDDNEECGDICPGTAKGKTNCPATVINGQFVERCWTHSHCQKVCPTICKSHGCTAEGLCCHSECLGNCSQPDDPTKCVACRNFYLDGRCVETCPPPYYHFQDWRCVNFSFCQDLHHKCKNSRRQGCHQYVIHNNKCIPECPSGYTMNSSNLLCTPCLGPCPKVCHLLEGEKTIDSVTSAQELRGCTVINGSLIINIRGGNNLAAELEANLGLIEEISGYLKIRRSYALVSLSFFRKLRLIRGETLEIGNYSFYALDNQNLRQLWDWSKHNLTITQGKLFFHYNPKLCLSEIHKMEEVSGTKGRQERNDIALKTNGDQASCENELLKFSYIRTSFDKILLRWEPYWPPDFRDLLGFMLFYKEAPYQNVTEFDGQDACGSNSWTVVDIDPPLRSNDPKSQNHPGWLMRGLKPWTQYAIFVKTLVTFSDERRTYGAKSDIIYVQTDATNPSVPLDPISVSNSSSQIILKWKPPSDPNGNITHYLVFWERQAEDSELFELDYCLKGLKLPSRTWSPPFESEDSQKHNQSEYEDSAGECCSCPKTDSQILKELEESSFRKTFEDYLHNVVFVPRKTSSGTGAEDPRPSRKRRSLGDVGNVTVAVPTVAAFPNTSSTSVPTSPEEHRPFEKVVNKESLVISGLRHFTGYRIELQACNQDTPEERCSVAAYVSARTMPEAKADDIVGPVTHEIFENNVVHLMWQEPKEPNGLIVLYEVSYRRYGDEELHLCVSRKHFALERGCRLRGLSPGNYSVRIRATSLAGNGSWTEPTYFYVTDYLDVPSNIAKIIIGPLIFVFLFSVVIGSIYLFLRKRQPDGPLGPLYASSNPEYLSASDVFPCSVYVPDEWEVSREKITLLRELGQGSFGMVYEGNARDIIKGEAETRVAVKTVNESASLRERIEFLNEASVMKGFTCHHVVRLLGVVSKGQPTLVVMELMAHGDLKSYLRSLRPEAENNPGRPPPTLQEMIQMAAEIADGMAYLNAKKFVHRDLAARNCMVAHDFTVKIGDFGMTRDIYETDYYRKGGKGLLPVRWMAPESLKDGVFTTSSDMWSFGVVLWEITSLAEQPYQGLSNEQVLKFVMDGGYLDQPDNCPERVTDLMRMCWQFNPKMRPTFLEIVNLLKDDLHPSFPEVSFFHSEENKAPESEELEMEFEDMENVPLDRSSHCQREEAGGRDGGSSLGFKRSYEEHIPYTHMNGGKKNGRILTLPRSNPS
# [9] = biological target: BDNF/NT-3 growth factors receptor (Homo sapiens, UniProt Q16620); test: Residual activity of human TrkB at 1 uM relative to control
# BDNF/NT-3 growth factors receptor, sequence (Q16620 32-822 limits assumed): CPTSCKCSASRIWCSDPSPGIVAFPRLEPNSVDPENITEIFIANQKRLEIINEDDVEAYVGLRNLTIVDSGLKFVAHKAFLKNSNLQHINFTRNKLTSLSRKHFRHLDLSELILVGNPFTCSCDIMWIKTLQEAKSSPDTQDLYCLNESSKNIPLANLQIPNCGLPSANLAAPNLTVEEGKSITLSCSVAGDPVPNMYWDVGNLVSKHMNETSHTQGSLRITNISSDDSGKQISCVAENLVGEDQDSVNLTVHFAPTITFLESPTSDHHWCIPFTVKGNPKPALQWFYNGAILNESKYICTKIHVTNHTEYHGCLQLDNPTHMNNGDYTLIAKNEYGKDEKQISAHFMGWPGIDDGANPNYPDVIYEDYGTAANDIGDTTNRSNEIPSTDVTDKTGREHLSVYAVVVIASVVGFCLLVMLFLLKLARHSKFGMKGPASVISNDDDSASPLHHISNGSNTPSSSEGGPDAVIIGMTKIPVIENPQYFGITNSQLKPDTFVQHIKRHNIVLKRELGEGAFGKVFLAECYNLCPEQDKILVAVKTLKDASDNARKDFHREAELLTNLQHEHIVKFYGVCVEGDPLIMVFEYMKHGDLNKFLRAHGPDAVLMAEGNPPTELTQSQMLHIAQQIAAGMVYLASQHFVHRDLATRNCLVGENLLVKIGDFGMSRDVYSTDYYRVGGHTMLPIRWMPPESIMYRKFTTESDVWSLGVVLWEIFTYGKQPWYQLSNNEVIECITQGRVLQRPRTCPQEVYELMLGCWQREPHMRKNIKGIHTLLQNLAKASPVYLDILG
# Platelet-derived growth factor receptor alpha (Homo sapiens), sequence (P16234 whole entry): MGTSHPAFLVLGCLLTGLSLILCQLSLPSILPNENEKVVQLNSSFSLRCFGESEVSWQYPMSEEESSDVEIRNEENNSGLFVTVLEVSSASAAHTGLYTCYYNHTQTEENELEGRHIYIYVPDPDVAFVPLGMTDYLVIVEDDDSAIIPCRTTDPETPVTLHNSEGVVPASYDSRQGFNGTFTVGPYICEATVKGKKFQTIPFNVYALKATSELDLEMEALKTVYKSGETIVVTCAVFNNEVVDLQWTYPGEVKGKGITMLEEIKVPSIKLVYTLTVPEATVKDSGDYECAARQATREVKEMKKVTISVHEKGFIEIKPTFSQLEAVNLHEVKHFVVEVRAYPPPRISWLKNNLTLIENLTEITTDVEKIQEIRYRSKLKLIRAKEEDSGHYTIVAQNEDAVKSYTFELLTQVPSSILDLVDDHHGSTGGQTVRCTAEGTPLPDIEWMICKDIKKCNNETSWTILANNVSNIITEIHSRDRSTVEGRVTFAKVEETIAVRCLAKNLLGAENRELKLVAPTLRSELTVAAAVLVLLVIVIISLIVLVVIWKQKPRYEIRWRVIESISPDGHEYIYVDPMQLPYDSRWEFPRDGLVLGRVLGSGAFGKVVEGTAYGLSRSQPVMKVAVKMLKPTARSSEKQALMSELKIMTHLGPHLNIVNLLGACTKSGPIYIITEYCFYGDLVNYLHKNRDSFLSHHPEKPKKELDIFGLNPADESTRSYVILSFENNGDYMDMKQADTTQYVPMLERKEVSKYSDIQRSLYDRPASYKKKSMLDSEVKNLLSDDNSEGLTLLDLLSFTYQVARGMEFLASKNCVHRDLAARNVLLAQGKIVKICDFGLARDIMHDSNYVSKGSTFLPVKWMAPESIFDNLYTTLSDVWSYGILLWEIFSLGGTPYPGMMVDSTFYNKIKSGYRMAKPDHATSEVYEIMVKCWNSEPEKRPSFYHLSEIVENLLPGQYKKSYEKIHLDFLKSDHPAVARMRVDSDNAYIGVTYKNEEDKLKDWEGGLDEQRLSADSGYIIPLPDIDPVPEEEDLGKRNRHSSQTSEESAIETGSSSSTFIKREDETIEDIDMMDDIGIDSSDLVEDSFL
residual activity [1],residual activity (Homo sapiens),residual activity [2],residual activity [3],IC50 [4],residual activity [5],residual activity [6],residual activity [7],residual activity [8],residual activity [9],SMILES
107%,54%,88%,100%,3 nM,103%,97%,125%,91%,–,CN(C)c1nc2ccc1CCCn1cc(c3ccccc31)C1=C(C(=O)NC1=O)c1cn(c3ccccc13)CC2
119%,84%,78%,97%,7 nM,87%,86%,114%,102%,98%,CN(C)c1cc2cc(n1)CCCn1cc(c3ccccc31)C1=C(C(=O)NC1=O)c1cn(c3ccccc13)CCC2
113%,88%,85%,115%,30 nM,85%,110%,114%,87%,106%,O=C1NC(=O)C2=C1c1cn(c3ccccc13)CCCc1ccc(c(N3CCCC3)n1)CCCn1cc2c2ccccc21
126%,88%,97%,103%,11 nM,92%,99%,110%,110%,105%,O=C1NC(=O)C2=C1c1cn(c3ccccc13)CCCc1cc(nc(N3CCCC3)c1)CCCn1cc2c2ccccc21
